Experiments:
[1] = target: T1, α2 (presynaptic α)-adrenoceptor (Rattus norvegicus, UniProt P22909); experiment: α2-adrenoceptor antagonistic activity on the rat field stimulated vas deferens preparation (clonidine agonist); format: cell-based; details: clonidine as agonist, Arunlakshana & Schild; for Kb: read-out: pA2 (α2) (converted); for pA2 (α2): 90 min
T1 construct: from tissue; host or cells: rat vas deferens (desheathed, field stimulated)
T1 sequence (P22909 1-465): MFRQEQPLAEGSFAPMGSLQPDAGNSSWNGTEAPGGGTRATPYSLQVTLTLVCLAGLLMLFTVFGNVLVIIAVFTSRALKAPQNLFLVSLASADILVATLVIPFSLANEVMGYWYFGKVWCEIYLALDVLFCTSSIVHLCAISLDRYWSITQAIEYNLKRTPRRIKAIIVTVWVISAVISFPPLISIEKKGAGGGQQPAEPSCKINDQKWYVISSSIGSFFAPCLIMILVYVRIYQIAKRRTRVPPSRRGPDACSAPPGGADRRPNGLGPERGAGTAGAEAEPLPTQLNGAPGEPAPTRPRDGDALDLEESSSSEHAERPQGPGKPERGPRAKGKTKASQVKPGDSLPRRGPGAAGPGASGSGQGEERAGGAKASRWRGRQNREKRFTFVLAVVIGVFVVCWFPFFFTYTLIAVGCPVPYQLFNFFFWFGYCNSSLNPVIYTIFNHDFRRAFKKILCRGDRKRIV
Experimental: The compounds of the invention were tested for their α2 -adrenoceptor antagonistic activity on the rat field stimulated vas deferens preparation using a modification of the method of Drew, Eur.J.Pharmac., 1977, 42, 123-130. The procedure is described below. […] from sexually mature rats were suspended in a 6 ml organ bath in Krebs solution at 37° and bubbled with 5% CO2 in oxygen. Platinum ring electrodes were positioned above and below the tissue for field stimulation, the stimulus parameters being 0.1 Hz 1 ms pulse width at supramaximal voltage. Twitch responses were recorded isotonically with a 0.5 g loading. […] After washing out clonidine, the twitch response quickly recovered and an antagonist was then introduced into the Krebs reservoir. Clonidine concentration-response curves were repeated 90 min after introduction of the antagonist. The concentration of clonidine producing 50% inhibition of twitch before and after introduction of antagonist were obtained and the dose-ratio for clonidine was calculated. Various concentrations of the antagonists were used. […] Chemother., 1959, 14, 48-58 and the values of pA2 and slope were calculated.

[2] = target: T2, postsynaptic (α1) α-adrenoceptor (Rattus norvegicus, UniProt P43140); experiment: postsynaptic (α1) antagonistic activity on the isolated anococcygeus muscle of the rat (phenylephrine or methoxamine agonist); format: cell-based; details: rat anococcygeus muscle; phenylephrine or methoxamine as agonist; α1; read-out: pA2 (postsynaptic) (converted)
T2 construct: the isolated anococcygeus muscle of the rat; from tissue; host or cells: rat anococcygeus muscle (male rats, 250-360 g)
T2 sequence (P43140 1-466): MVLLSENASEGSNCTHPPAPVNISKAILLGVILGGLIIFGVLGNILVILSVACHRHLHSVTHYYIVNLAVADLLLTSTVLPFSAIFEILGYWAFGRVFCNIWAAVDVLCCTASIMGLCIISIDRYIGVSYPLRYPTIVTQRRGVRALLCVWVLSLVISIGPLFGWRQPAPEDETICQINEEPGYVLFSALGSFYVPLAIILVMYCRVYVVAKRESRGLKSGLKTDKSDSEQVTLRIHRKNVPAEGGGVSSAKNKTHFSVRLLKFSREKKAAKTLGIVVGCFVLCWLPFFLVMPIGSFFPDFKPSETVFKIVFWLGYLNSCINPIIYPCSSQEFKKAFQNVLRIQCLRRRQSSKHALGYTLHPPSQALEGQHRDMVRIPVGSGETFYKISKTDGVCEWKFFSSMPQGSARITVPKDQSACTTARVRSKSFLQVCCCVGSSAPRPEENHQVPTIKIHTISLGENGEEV
Text: (§1) The postsynaptic(α1)antagonistic activity can be evaluated by a number of different methods. One method involves assessing the activity on the isolated anococcygeus muscle of the rat. The method is based on that of Gillespie, Br.J.Pharmac., 1972, 45, 404-416. In the procedure male rats (250-360 g) are killed by a blow on the head and bled. The two anococcygeus muscles are removed from their position in the midline of the pelvic cavity, where they arise from the upper coccygeal vertebrae. The muscles are suspended in 5 ml organ baths in Krebs solution containing 10^-4 M ascorbic acid, to prevent drug oxidation. The tissues are gassed with a 95% oxygen, 5% CO2 mixture and maintained at 37°. Longitudinal muscle contractions are recorded using isotonic transducers. Cumulative dose response curves are then obtained to phenylephrine or in some cases methoxamine, both agents being postsynaptic alpha adrenoceptor agonists. The concentration range of phenylephrine or methoxamine used is 0.02 to 0.8 μg.ml^-1. The agonist is then washed from the bath and the test drug added to the bathing medium at a concentration of 10^-6 M. After 30 min. equilibration with the test drug a further agonist dose response curve is obtained. The washing, equilibration and agonists dosing procedures are then repeated using 10^-5 M and 10^-4 M solutions of the test drug. Estimates of the pA2 value for the test drug as an antagonist of phenylephrine or methoxamine were made from the agonist dose-ratios using the method of Arunlakshana & Schild, Br.J.Pharmac.Chemother., 1959, 14, 48-58.

[3] = test system: postsynaptic (α1) α-adrenoceptor; experiment: as above; format: cell-based
Text: as §1

[4] = test system: hyperglycaemia induced by the α2 agonist clonidine; experiment: inhibition of clonidine-induced hyperglycaemia in rats; format: in vivo, rat; details: 10 mg/kg, clonidine 15 μg/kg subcutaneous
[5] = test system: human blood platelets; experiment: inhibition of adrenaline-induced aggregation in vitro of human blood platelets; format: cell-based
[6] = test system: rats rendered hypertensive by implantation of desoxycorticosterone acetate; experiment: hypotensive activity in rats rendered hypertensive by implantation of desoxycorticosterone acetate; format: in vivo, rat

| SMILES | Kb [1] | Kb [2] | pA2 (α2) [1] | α2 selectivity [3] | inhibition of the hyperglycaemia induced by clonidine [4] | inhibition of the aggregation in vitro of human blood platelets induced by adrenaline [5] | hypotensive activity [6] |
| --- | --- | --- | --- | --- | --- | --- | --- |
| CN([C@@H]1CCN2CCc3ccccc3[C@@H]2C1)S(C)(=O)=O (relative stereo) [A, N-Methyl-N-(1,3,4,6,7,11bα-hexahydro-2H-benzo[a]quinolizin-2β-yl)methanesulphonamide] | 20 nM | 1120 nM |  | 56 | inhibited the hyperglycaemia | inhibit the aggregation | do not possess substantial hypotensive activity |
| CCCS(=O)(=O)N(C)[C@@H]1CCN2CCc3ccccc3[C@@H]2C1 (relative stereo) [C, N-Methyl-N-(1,3,4,6,7,11bα-hexahydro-2H-benzo[a]quinolizin-2β-yl)propan-1-sulphonamide] | 5.01 nM | 724 nM |  | 144 |  | inhibit the aggregation |  |
| CCN([C@@H]1CCN2CCc3ccccc3[C@@H]2C1)S(C)(=O)=O (relative stereo) [E, N--Ethyl-N--(1,3,4,6,7,11bα-hexahydro-2H--benzo[a]quinolizin-2-62-yl)methanesulphonamide] | 15.8 nM | 562 nM |  | 35.5 |  |  |  |
| S=C(Nc1ccccc1)NC1CCN2CCc3ccccc3C2C1 (centres unmarked) [1-(1,3,4,6,7,11b-hexahydro-2H--benzo[a]quinolizin-2yl)-3-phenylthiourea, reference compound] | 2510 nM |  |  |  |  |  |  |
| CCCS(=O)(=O)N[C@@H]1CCN2CCc3ccccc3[C@@H]2C1 (relative stereo) [2β-(n-propanesulphonamido-1,3,4,6,7,11bα-hexahydro-2H--benzo[a]quinolizine, reference compound] | 316 nM |  |  |  |  |  |  |
| CS(=O)(=O)NC1CCN2CCc3ccccc3C2C1 (centres unmarked) [2-methanesulphonamido-1,3,4,6,7,11b-hexahydro-2H--benzo[a]quinolizine, reference compound] | 126 nM |  |  |  |  |  |  |
| CCS(=O)(=O)NC1CCN2CCc3ccccc3C2C1 (centres unmarked) [2βethanesulphonamido-1,3,4,6,7,11b-hexahydro-2H--benzo[a]quinolizine, reference compound] |  |  | 5.3 |  |  |  |  |
| CCS(=O)(=O)N(C)[C@@H]1CCN2CCc3ccccc3[C@@H]2C1 (relative stereo) [B, N-Methyl-N-(1,3,4,6,7,11bα-hexahydro-2H-benzo[a]quinolizin-2β-yl)ethanesulphonamide] | 20 nM | 676 nM |  | 34 |  |  |  |
| O=S(=O)(NC1CCN2CCc3ccccc3C2C1)c1ccccc1 (stereo not drawn) [2β-phenylsulphonamido-1,3,4,6,7,11b-hexahydro-2H--benzo[a]quinolizine, reference compound] |  |  | 6.4 |  |  |  |  |
| Cc1ccc(S(=O)(=O)N(C)[C@@H]2CCN3CCc4ccccc4[C@@H]3C2)cc1 (relative stereo) [F, N-Methyl-N-(1,3,4,6,7,11bα-hexahydro-2H-benzo[a]quinolizin-2β-yl)toluene-4-sulphonamide] | 7.94 nM | 468 nM |  | 59 |  |  |  |
| CN([C@@H]1CCN2CCc3ccccc3[C@@H]2C1)S(=O)(=O)c1ccccc1 (relative stereo) [D, N-methyl-N-(1,3,4,6,7,11bα-hexahydro-2H-benzo[a]quinolizin-2β-yl)benzenesulphonamide] | 3.98 nM | 457 nM |  | 102 | inhibited the hyperglycaemia |  |  |
| O=C(Nc1ccccc1)NC1CCN2CCc3ccccc3C2C1 (centres unmarked) [1-(1,3,4,6,7,11b-hexahydro-2H benzo[a]quinolizin-2yl)-3-phenyl urea, reference compound] | 3980 nM |  |  |  |  |  |  |

More lines, main results first:

| Kb [1] | Kb [2] | pA2 (α2) [1] | SMILES | α2 selectivity [3] | inhibition of the hyperglycaemia induced by clonidine [4] | inhibition of the aggregation in vitro of human blood platelets induced by adrenaline [5] | hypotensive activity [6] |
| --- | --- | --- | --- | --- | --- | --- | --- |
| 12.6 nM | 537 nM |  | Cc1ccccc1S(=O)(=O)N(C)[C@@H]1CCN2CCc3ccccc3[C@@H]2C1 (relative stereo) [I, N-Methyl-N-(1,3,4,6,7,11bα-hexahydro-2H-benzo[a]quinolizin-2β-yl)-2-methylbenzenesulphonamide] | 40 |  |  |  |
| 3.16 nM | 324 nM |  | CC(C)CS(=O)(=O)N(C)[C@@H]1CCN2CCc3ccccc3[C@@H]2C1 (relative stereo) [L, N-Methyl-N-(1,3,4,6,7,11bα-hexahydro-2H-benzo[a]quinolizin-2β-yl)-isobutanesulphonamide] | 93 | inhibited the hyperglycaemia |  |  |
| 158 nM |  |  | COc1cc2c(cc1OC)[C@@H]1C[C@H](N(C)S(C)(=O)=O)CCN1CC2 (relative stereo) [N--methyl-N--(9,10-dimethoxy-1,3,4,6,7,11bα-hexahydro-2H--benzo[a]quinolizin-2β-yl)-methanesulphonamide, reference compound] |  |  |  |  |
| 31.6 nM | 3310 nM |  | CN([C@@H]1CCN2CCc3ccccc3[C@@H]2C1)S(=O)(=O)c1ccc(Cl)c(Cl)c1 (relative stereo) [J, N-Methyl-N-(1,3,4,6,7,11bα-hexahydro-2H-benzo[a]quinolizin-2β-yl)-3,4-dichlorobenzenesulphonamide] | 93 |  |  |  |
| 100 nM |  |  | CCCN([C@@H]1CCN2CCc3ccccc3[C@@H]2C1)S(C)(=O)=O (relative stereo) [N--(n-Propyl)-N--(1,3,4,6,7,11bα-hexahydro-2H--benzo[a]quinolizin-2β-yl)methanesulphonamide, reference compound] |  |  |  |  |
| 25.1 nM | 813 nM |  | CN([C@@H]1CCN2CCc3ccccc3[C@@H]2C1)S(=O)(=O)c1ccc(Cl)cc1 (relative stereo) [H, N-Methyl-N-(1,3,4,6,7,11bα-hexahydro-2H-benzo[a]quinolizin-2β-yl)-4-chlorobenzenesulphonamide] | 32 |  |  |  |
| 7.94 nM | 316 nM |  | COc1ccc(S(=O)(=O)N(C)[C@@H]2CCN3CCc4ccccc4[C@@H]3C2)cc1 (relative stereo) [G, N-Methyl-N-(1,3,4,6,7,11bα-hexahydro-2H-benzo[a]quinolizin-2β-yl)-4-methoxybenzenesulphonamide] | 40 |  |  |  |
| 12.6 nM | 251 nM |  | CCCCS(=O)(=O)N(C)[C@@H]1CCN2CCc3ccccc3[C@@H]2C1 (relative stereo) [K, N-Methyl-N-(1,3,4,6,7,11bα-hexahydro-2H-benzo[a]quinolizin-2β-yl)-n-butanesulphonamide] | 19 |  |  |  |

Source: patent publication US4454139A, “α2 -Adrenoceptor antagonistic benzoquinolizines” (John Wyeth & Brother, Limited, priority 1980, dated 1984)
